Data reported in PMC4099323, “Inhibition of Catalase by Tea Catechins in Free and Cellular State: A Biophysical Approach” (PLoS ONE, 2014).

Columns and labels:
[1] = target: T1, Catalase (from bovine liver) (Bos taurus, UniProt P00432); assay: Circular dichroism: catechin-induced conformational change in catalase; settings: catalase 1 µM, ligands 3 µM each, 25°C
T1 construct: Catalase (from bovine liver); purchased Sigma-Aldrich, St. Louis, MO, USA; host or cells: bovine liver
T1 sequence (P00432 2-527 limits assumed): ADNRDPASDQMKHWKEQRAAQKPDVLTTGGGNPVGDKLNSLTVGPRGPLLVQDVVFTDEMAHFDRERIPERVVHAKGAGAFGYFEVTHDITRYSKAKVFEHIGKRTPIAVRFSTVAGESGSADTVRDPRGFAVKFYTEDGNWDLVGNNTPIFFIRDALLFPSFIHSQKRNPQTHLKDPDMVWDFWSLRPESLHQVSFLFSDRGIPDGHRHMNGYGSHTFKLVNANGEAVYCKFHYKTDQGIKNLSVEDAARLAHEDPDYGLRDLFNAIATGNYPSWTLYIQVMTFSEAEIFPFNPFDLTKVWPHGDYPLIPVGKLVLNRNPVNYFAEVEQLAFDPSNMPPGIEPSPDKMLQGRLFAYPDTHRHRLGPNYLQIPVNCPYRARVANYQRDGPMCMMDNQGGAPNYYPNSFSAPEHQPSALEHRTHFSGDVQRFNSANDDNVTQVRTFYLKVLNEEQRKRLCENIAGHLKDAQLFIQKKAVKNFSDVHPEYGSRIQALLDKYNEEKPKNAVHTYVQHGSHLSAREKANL
Description: All the CD experiments were carried out on a Jasco-815 automatic spectropolarimeter (Jasco International Co., Ltd. Hachioji, Japan) equipped with a peltier cuvette holder and temperature controller PFD425 L/15. The catalase concentration and path length of the cuvette used were 1 µM and 0.1 cm, respectively. The instrument parameters were set at scanning speed of 50 nm/min, bandwidth of 1.0 nm and sensitivity of 100 milli degree. The molar ellipticity values are expressed in terms of mean residue molar ellipticity, in units of deg. cm^2 dmol^−1.
CD allows investigation of the conformational changes that occur in a protein upon ligand binding. The CD spectra of catalase at pH 7.4 in the absence and in the presence of EGC, EC, ECG, EGCG, and 3-AT at 25°C are represented in Figure 5 (a – f). […] The negative band at 208 and 220 nm decreased in intensity with the addition of various catechins, which is indicative of the loss of α-helicity upon interaction. […] From the CD spectra, the effect of catechins on the secondary structure of catalase is in the following order: 3-AT>EGCG>ECG>EC>EGC.

K562 cells = assay: Intracellular ROS by DCFDA fluorescent probe; format: cell-based, human; settings: 24 h, basal 255.09±3.69 AU
Description: Intracellular ROS were estimated by using the DCFDA fluorescent probe. Intracellular H2O2 and other peroxides can oxidize DCFDA to highly fluorescent compound dichlorofluorescein (DCF). K562 cells were incubated at 37°C in absence and presence of EGCG (12.5 – 100 µM) for 24 h. Cells were again incubated with 10 µM DCFDA at 37°C for an additional 30 min, and then washed twice with PBS. Finally the fluorescence intensity of DCF was measured with an excitation wavelength of 485 nm and emission wavelength of 530 nm.

CDK4 = settings: MCF7 breast cancer cell lines, 30 µM; cited from earlier work
[2] = target: T1, Catalase (from bovine liver); assay: Fluorimetric titration: quenching of catalase fluorescence by catechins; format: binding
Description: Fluorescence spectra were recorded using a Perkin Elmer fluorescence spectrophotometer (LS-55) equipped with 150 W Xenon flash lamp and using fluorescence-free quartz cell of 1 cm path length. The widths of excitation and emission slits were set to 5 nm, and scan speed (100 nm/min), excitation voltage were kept constant for each data set. Quantitative analysis of the potential interaction between catechins and catalase was performed by the fluorimetric titration technique. Briefly, solution of catalase (5×10^−7 M, as calculated using molar extinction coefficient of 3.24×10^5 M^−1 s^−1 at 405 nm for catalase) in 50 mM phosphate buffer of pH 7.4 was titrated in cuvette by successive additions of individual catechin solution aliquots from a stock of 5×10^−7 M. Fluorescence emission spectra were recorded in the wavelength range of 290–450 nm upon excitation at 280 nm when catalase samples were titrated with catechins. All experiments were carried out at room temperature. Fluorescence intensity was measured at 340 nm of protein emission spectra. Fluorescence spectra of individual catechins in buffer were recorded as blanks under the same experimental conditions and subtracted from the corresponding sample to correct the fluorescence background.
The binding constants and the number of binding sites involved were calculated according to the relation: log (F0–F)/F = log K+n log [Q], where K is the binding constant and n is the number of binding sites, F0 is the fluorescence intensity of free catalase, F is the consecutive fluorescence on addition of catechins, and [Q] is the concentration of the quencher (here catechins). A plot of log (F0– F)/F and log [Q] was used to determine the values of K and n from the intercept and the slope respectively (Figure 3 A–D).

vimentin = settings: read-out: dissociation constant (K d); cited from earlier work
[3] = system: cyclin dependent kinase 2 (CDK2); settings: MCF7 breast cancer cell lines, 30 µM; cited from earlier work
[4] = target: human dihydrofolate reductase (DHFR); set-up: method as in PMID 20054477; settings: fluorescence quenching; cited from earlier work
Bcl-2 proteins = settings: read-out: inhibition constant (K i); cited from earlier work

Structure (SMILES): O=C(O[C@@H]1Cc2c(O)cc(O)cc2O[C@@H]1c1cc(O)c(O)c(O)c1)c1cc(O)c(O)c(O)c1 [EGCG, (−)-epigallocatechin gallate]
- order of effect on the secondary structure of catalase (loss of α-helicity) [1]: 3-AT>EGCG>ECG>EC>EGC
- intracellular ROS (K562 cells; 12.5 µM): 298.01±4.89 AU
- intracellular ROS (K562 cells; 25 µM): 320.83±4.03 AU
- intracellular ROS (K562 cells; 50 µM): 354.07±4.66 AU
- intracellular ROS (K562 cells; 100 µM): 442.90±7.43 AU
- inhibition of CDK4 (CDK4): inhibited
- number of binding sites n ([2]; double logarithmic plot, 25°C): single binding site
- binding constant K with catalase (fluorimetric) ([2]; double logarithmic plot, 25°C, pH 7.4, λex 280 nm): 2.27e+06 M⁻¹
- Kd ([2]; from the fluorimetric binding constant, read-out: K d to catalase): 0.44 µM
- Kd (vimentin): 0.0033 µM
- inhibition of CDK2 [3]: inhibited
- Kd [4]: 0.9 µM
- Ki (Bcl-2 proteins): 0.33 to 0.49 µM
